Where a name gives a salt, the structure may show the parent alone. Read-outs that look alike come from different tables or passages of the source.
Assays:
[1] = target: T1, SARS-CoV-2 PLpro (nsp3 1564–1878) (Severe acute respiratory syndrome coronavirus 2, UniProt P0DTD1); assay: biochemical; set-up: FRET-quenched peptide (Pro3) cleavage by PLpro, 10 min pre-incubation, slope over 20 min, normalised to no-compound control; details: low concentration screen, read-out: % of control remaining
[2] = target: T1, SARS-CoV-2 PLpro (nsp3 1564–1878); assay: biochemical; set-up: FRET-quenched peptide (Pro3) cleavage by PLpro, 10 min pre-incubation, slope over 20 min, normalised to no-compound control; details: high concentration screen, read-out: % of control remaining

Q: With `O=c1[nH]ccc2c(S(=O)(=O)N3CCCNCC3)cccc12` [HA 1100 hydrochloride - 1-[(1,2-Dihydro-1-oxo-5-isoquinolinyl)sulfonyl]hexahydro-1H-1,4-diazepine hydrochloride] as the compound, how does the remaining activity at 1.25 µM ([1]; Well no.=2526) read?
A: 95.2%

Q: And the remaining activity at 3.75 µM ([2]; Well no.=2526)?
A: 97.2%

Q: How did the remaining activity at 1.25 µM ([1]; Well no.=478) turn out when `O=S(=O)(c1cccc2cnccc12)N1CCNCC1` [HA-100] was run?
A: 102%

Q: And the remaining activity at 3.75 µM ([2]; Well no.=478)?
A: 101%

Q: For `NC(N)=NCCNS(=O)(=O)c1cccc2cnccc12` [HA-1004 hydrochloride], which remaining activity at 1.25 µM ([1]; Well no.=522) is on record?
A: 101%

Q: What about the remaining activity at 3.75 µM ([2]; Well no.=522) of the same compound?
A: 99.3%

Q: For `CC(C)c1ccc(NC(=O)Cn2cnc3c2c(=O)n(C)c(=O)n3C)cc1` [HC-030031], which remaining activity at 1.25 µM ([1]; Well no.=5225) is on record?
A: 94%

Q: What about the remaining activity at 3.75 µM ([2]; Well no.=5225) of the same compound?
A: 89.7%

Q: For `Cc1c(C(=O)Nc2cccc(C(F)(F)F)c2)cc(-c2ccccc2)n1CCCN1CCOCC1` [HC-067047], which remaining activity at 1.25 µM ([1]; Well no.=5409) is on record?
A: 102%

Q: And the remaining activity at 3.75 µM ([2]; Well no.=5409)?
A: 103%

Q: Which remaining activity at 1.25 µM ([1]; Well no.=8172) does the source give for `O=C(CCc1ccc(CN[C@H](C(=O)OC2CCCC2)C2CCCCC2)cn1)NO` [HDAC-IN-3] here?
A: 105%

Q: And the remaining activity at 3.75 µM ([2]; Well no.=8172)?
A: 104%

Q: Which results are given for `C[C@@H]1CN(C(=O)Nc2ccc(-c3nc(N4CCOCC4)c4cnn(CCCCCCC(=O)NO)c4n3)cc2)CCO1` [HDACs/mTOR Inhibitor 1]?
A: remaining activity at 1.25 µM ([1]; Well no.=6964): 96.4%; remaining activity at 3.75 µM ([2]; Well no.=6964): 93.8%

Q: `CCCCC#Cc1nc(N)c2ncn([C@@H]3O[C@H](C(=O)NCC)[C@@H](O)[C@H]3O)c2n1` [HE-NECA] was tested. Which remaining activity at 1.25 µM ([1]; Well no.=756) did it give?
A: 97%

Q: And the remaining activity at 3.75 µM ([2]; Well no.=756)?
A: 98.5%

Q: What does the source list for `CCOc1ccc(C(Nc2ccccn2)c2ccc3ccc(C)nc3c2O)cc1C` (stereo not drawn) [HLM006474]?
A: remaining activity at 1.25 µM ([1]; Well no.=5926): 104%; remaining activity at 3.75 µM ([2]; Well no.=5926): 100%

Q: With `CC1(C)C=C(CN2C/C(=C\c3ccc(F)cc3)C(=O)/C(=C/c3ccc(F)cc3)C2)C(C)(C)N1O` [HO-3867] as the compound, how does the remaining activity at 1.25 µM ([1]; Well no.=8518) read?
A: 101%

Q: And the remaining activity at 3.75 µM ([2]; Well no.=8518)?
A: 102%

Q: Which results are given for `CC(C)(C)NCC(O)c1ccc(O)cc1Cl` (stereo not drawn) [HOKU-81]?
A: remaining activity at 1.25 µM ([1]; Well no.=8051): 93%; remaining activity at 3.75 µM ([2]; Well no.=8051): 96.3%

Q: With `Cc1ccc(Oc2ccnc3cc(-c4cnn(C5CCNCC5)c4)ccc23)cc1` [HS-1371] as the compound, how does the remaining activity at 1.25 µM ([1]; Well no.=6820) read?
A: 91.1%

Q: And the remaining activity at 3.75 µM ([2]; Well no.=6820)?
A: 85.5%

Q: For `COc1cccc(-c2cc(F)ccc2C2Cc3nc(N)nc(C)c3C(=O)N2)n1` (stereo not drawn) [HSP990 (NVP-HSP990)], which remaining activity at 1.25 µM ([1]; Well no.=8934) is on record?
A: 93.5%

Q: And the remaining activity at 3.75 µM ([2]; Well no.=8934)?
A: 100%

Q: How did the remaining activity at 1.25 µM ([1]; Well no.=8250) turn out when `CCC(=O)O[C@]1(C(=O)CCl)[C@@H](C)C[C@H]2[C@@H]3C[C@H](F)C4=CC(=O)C=C[C@]4(C)[C@@]3(F)[C@@H](O)C[C@@]21C` [Halobetasol Propionate] was run?
A: 94.9%

Q: And the remaining activity at 3.75 µM ([2]; Well no.=8250)?
A: 91.1%

Q: Which results are given for `COc1ccc2c3c([nH]c2c1)C(C)=NCC3` [Harmaline]?
A: remaining activity at 1.25 µM ([1]; Well no.=3286): 99.5%; remaining activity at 3.75 µM ([2]; Well no.=3286): 99.1%

Q: How did the remaining activity at 1.25 µM ([1]; Well no.=612) turn out when `Cc1nccc2c1[nH]c1ccccc12` [Harmane] was run?
A: 98.8%

Q: And the remaining activity at 1.25 µM ([1]; Well no.=3593)?
A: 101%

Q: And the remaining activity at 3.75 µM ([2]; Well no.=612)?
A: 92%

Q: What about the remaining activity at 3.75 µM ([2]; Well no.=3593) of the same compound?
A: 102%

Q: Which results are given for `COc1ccc2c(c1)[nH]c1c(C)nccc12` [Harmine]?
A: remaining activity at 1.25 µM ([1]; Well no.=2092): 90.6%; remaining activity at 1.25 µM ([1]; Well no.=3681): 97.5%; remaining activity at 1.25 µM ([1]; Well no.=8343): 96.2%; remaining activity at 3.75 µM ([2]; Well no.=2092): 88.2%; remaining activity at 3.75 µM ([2]; Well no.=3681): 97.5%; remaining activity at 3.75 µM ([2]; Well no.=8343): 83.5%

Q: Which results are given for `COC(=O)C[C@](O)(CCC(C)(C)O)C(=O)O[C@@H]1C(OC)=C[C@]23CCCN2CCc2cc4c(cc2[C@H]13)OCO4` [Harringtonine]?
A: remaining activity at 1.25 µM ([1]; Well no.=3615): 105%; remaining activity at 3.75 µM ([2]; Well no.=3615): 103%

Q: Which results are given for `CO[C@H](C)[C@](O)(C(=O)OCC1=CCN2CC[C@H](O)[C@@H]12)C(C)C` [Heliotrine]?
A: remaining activity at 1.25 µM ([1]; Well no.=3149): 101%; remaining activity at 3.75 µM ([2]; Well no.=3149): 104%

Q: Which remaining activity at 1.25 µM ([1]; Well no.=474) does the source give for `C[N+]1(C)CCO[C@@](O)(c2ccc(-c3ccc([C@@]4(O)C[N+](C)(C)CCO4)cc3)cc2)C1` [Hemicholinium-3] here?
A: 97.1%

Q: What about the remaining activity at 3.75 µM ([2]; Well no.=474) of the same compound?
A: 95.2%

Q: `CCCCCCCCCCCCCCCCCCCCC(=O)O` [Heneicosanoic acid] was tested. Which remaining activity at 1.25 µM ([1]; Well no.=4450) did it give?
A: 101%

Q: What about the remaining activity at 3.75 µM ([2]; Well no.=4450) of the same compound?
A: 101%

Q: With `CCCCC/C=C\C[C@@H]1O[C@H]1/C=C/C(O)C/C=C\CCCC(=O)O` (stereo partly drawn) [Hepoxilin A3] as the compound, how does the remaining activity at 1.25 µM ([1]; Well no.=4339) read?
A: 107%

Q: And the remaining activity at 3.75 µM ([2]; Well no.=4339)?
A: 106%

Q: How did the remaining activity at 1.25 µM ([1]; Well no.=4341) turn out when `CCCCC/C=C\C[C@@H]1O[C@H]1C(O)/C=C\C/C=C\CCCC(=O)O` (stereo partly drawn) [Hepoxilin B3] was run?
A: 97.9%

Q: What about the remaining activity at 3.75 µM ([2]; Well no.=4341) of the same compound?
A: 96.6%

Q: Which results are given for `CCCCCCCCCCCCCCCCC(=O)O` [Heptadecanoic acid]?
A: remaining activity at 1.25 µM ([1]; Well no.=4308): 106%; remaining activity at 3.75 µM ([2]; Well no.=4308): 101%

Q: With `CO[C@H]1[C@@H](OC)C[C@H](C)[C@@H](OC)C2=CC(=O)C=C(NC(=O)/C(C)=C/C=C\[C@H](OC)[C@@H](OC(N)=O)/C(C)=C/[C@@H]1C)C2=O` [Herbimycin A, Streptomyces sp.] as the compound, how does the remaining activity at 1.25 µM ([1]; Well no.=2419) read?
A: 104%

Q: What about the remaining activity at 3.75 µM ([2]; Well no.=2419) of the same compound?
A: 111%

Q: What does the source list for `COc1ccc2cc1Oc1ccc(cc1)C[C@H]1c3cc(c(OC)cc3CCN1C)Oc1c(OC)c(OC)c(OC)c3c1[C@H](C2)N(C)CC3` [Hernandezine]?
A: remaining activity at 1.25 µM ([1]; Well no.=3151): 100%; remaining activity at 3.75 µM ([2]; Well no.=3151): 101%

Q: With `CCS(=O)(=O)Nc1ccc2c(c1)/C(=C(/Nc1ccc(CN3CCCCC3)cc1)c1ccccc1)C(=O)N2` [Hesperadin] as the compound, how does the remaining activity at 1.25 µM ([1]; Well no.=5262) read?
A: 99.1%

Q: What about the remaining activity at 3.75 µM ([2]; Well no.=5262) of the same compound?
A: 88.4%

Q: Which results are given for `COc1ccc([C@@H]2CC(=O)c3c(O)cc(O)cc3O2)cc1O` [Hesperetin]?
A: remaining activity at 1.25 µM ([1]; Well no.=6630): 103%; remaining activity at 3.75 µM ([2]; Well no.=6630): 104%

Q: Which remaining activity at 1.25 µM ([1]; Well no.=3153) does the source give for `CCN1C[C@]2(C)CC[C@H](OC)[C@]34C1[C@H]([C@@H](O)[C@H]23)[C@@]1(O)CC[C@H]2C[C@@H]4[C@@H]1C(=O)O2` [Heteratisine] here?
A: 102%

Q: What about the remaining activity at 3.75 µM ([2]; Well no.=3153) of the same compound?
A: 105%

Q: With `N[C@@H](Cc1cnc[nH]1)C(=O)N[C@@H](Cc1cnc[nH]1)C(=O)N[C@@H](Cc1cnc[nH]1)C(=O)N[C@@H](Cc1cnc[nH]1)C(=O)N[C@@H](Cc1cnc[nH]1)C(=O)N[C@@H](Cc1cnc[nH]1)C(=O)O` [Hexa-His] as the compound, how does the remaining activity at 1.25 µM ([1]; Well no.=8312) read?
A: 94.5%

Q: And the remaining activity at 3.75 µM ([2]; Well no.=8312)?
A: 96.4%

Q: Which results are given for `O=C(O)CCCCCCCCCCCCCCC(=O)O` [Hexadecanedioic acid]?
A: remaining activity at 1.25 µM ([1]; Well no.=6685): 104%; remaining activity at 3.75 µM ([2]; Well no.=6685): 106%

Q: Which results are given for `CCCCCCCCCCCCCCCC(=O)O` [Hexadecanoic acid]?
A: remaining activity at 1.25 µM ([1]; Well no.=4302): 101%; remaining activity at 3.75 µM ([2]; Well no.=4302): 97.2%

Q: With `C[N+](C)(C)CCCCCC[N+](C)(C)C` [Hexamethonium bromide] as the compound, how does the remaining activity at 1.25 µM ([1]; Well no.=702) read?
A: 98.3%

Q: And the remaining activity at 3.75 µM ([2]; Well no.=702)?
A: 100%

— publication PMC8286840, “Identifying SARS-CoV-2 antiviral compounds by screening for small molecule inhibitors of Nsp3 papain-like protease” (Biochemical Journal, 2021)
